Legend:
[1] = target: hNGAL (human lipocalin 2), wild type, SEQ ID NO: 1 (Homo sapiens, UniProt P80188); assay: Surface plasmon resonance (Biacore T200); assay type: binding; conditions: positive control
From the text: In a surface plasmon resonance (SPR) based assay, a Biacore T200 instrument (GE Healthcare) was used to measure the binding affinity of individual muteins or fusion molecules to pyoverdine siderophores (to pyoverdine I succinyl, -succinamide, -α-ketoglutaryl with complexed iron ion or to pyoverdine II succinyl, -succinamide, -α-ketoglutaryl with complexed iron ion or to pyoverdine III succinyl, -succinamide, -α-ketoglutaryl with complexed iron ion). To this end, muteins selected for binding to pyoverdines (SEQ ID NOs: 16, 36, 53), a fusion molecule (SEQ ID NO: 134) and a negative control (SEQ ID NO: 64) were biotinylated for 2 h at room temperature applying an appropriate excess of EZ-Link NHS-PEG4-Biotin (Thermo, Cat #21329) followed by separation of non-reacted biotin using a Zebra Spin Desalting Plate (Thermo, […]) according to the manufacturer's instructions.
In the SPR affinity assay, biotinylated muteins and negative control were captured on a sensor chip CAP using the Biotin CAPture Kit (GE Healthcare), wherein the Sensor Chip CAP is pre-immobilized with an ssDNA oligo. […] After ligand immobilization, the four concentrations of Pvd were applied consecutively in ascending order before the dissociation was monitored. […] Data were evaluated with Biacore T200 Evaluation software (V 1.0). […]

[2] = target: T1, hNGAL (human lipocalin 2, parent wild type SEQ ID NO: 1) mutein SEQ ID NO: 62 (Homo sapiens, UniProt P80188, A60Q/C107S/D65G/D97L/I61W/K145F/K154F/K66R/K93I/L123G/L56H/L90D/N85D/Q69R/R101T/R92A/S147I/S88D/W99R/Y120H/Y126G/Y152A/Y72W); assay: Surface plasmon resonance (Biacore T200), CM5 chip; assay type: binding; conditions: SPR, high concentrations (≥1 μM)
T1 construct: made in house
Description: (§1) Subsequently, 5 μg/mL of mutein or the negative control solution in 10 mM acetate pH 4.0 was applied at a flow rate of 10 μl/min until a high immobilization level of approximately 2000 RU was achieved. Residual activated groups were quenched with ethanolamine. The reference channels were treated with EDC/NHS following ethanolamine (blank immobilization).
The binding assay was carried out with a contact time of 180 s, dissociation times of 1200-1800 s and applying a flow rate of 30 μl/min. Measurements were performed at 25° C. Regeneration of the immobilized mutein surface was achieved by three consecutive injections of 10 mM Gly-HCl pH 1.5 (120 s) followed by an extra wash with running buffer and a stabilization period. Data were evaluated with Biacore T200 Evaluation software (V 1.0). Double referencing was used. The 1:1 Binding model was used to fit the raw data.
Subsequently, 5 μg/mL of mutein or the negative control solution in 10 mM acetate pH 4.0 was applied at a flow rate of 10 μl/min until a high immobilization level of approximately 2000 RU was achieved. Residual activated groups were quenched with ethanolamine. The reference channels were treated with EDC/NHS following ethanolamine (blank immobilization). […] The binding assay was carried out with a contact time of 180 s, dissociation times of 1500-1800 s and applying a flow rate of 30 μl/min. Measurements were performed at 25° C. Regeneration of the immobilized mutein surface was achieved by three consecutive injections of 10 mM Gly-HCl pH 1.5 (120 s) followed by an extra wash with running buffer and a stabilization period. Data were evaluated with Biacore T200 Evaluation software (V 1.0). Double referencing was used. The 1:1 Binding model was used to fit the raw data.

[3] = target: lipocalin negative control SEQ ID NO: 64 (Homo sapiens, UniProt P80188, C107S/Q48H); assay: Surface plasmon resonance (Biacore T200); assay type: binding; conditions: Biacore, Example 18
Description: In a Surface Plasmon Resonance (SPR) based assay a Biacore T200 instrument (GE Healthcare) was used to measure the binding affinity of muteins to pyoverdine I succinyl, -succinamide, -α-ketoglutaryl with complexed iron ion or to pyoverdine II succinyl, -succinamide, -α-ketoglutaryl with complexed iron ion or to pyoverdine III succinyl, -succinamide, -α-ketoglutaryl with complexed iron ion. Muteins selected for binding to pyoverdines and negative control (SEQ ID NO: 64) were biotinylated for 2 h at room temperature applying an appropriate excess of EZ-Link NHS-PEG4-Biotin (Thermo, Cat #21329) followed by separation of non-reacted Biotin using a Zebra Spin Desalting Plate (Thermo, Cat #21329) according to the manufactures instructions.
In the SPR affinity assay, biotinylated muteins and negative control were captured on a sensor chip CAP using the Biotin CAPture Kit (GE Healthcare): Sensor Chip CAP is pre-immobilized with an ssDNA oligo. Undiluted Biotin CAPture Reagent (streptavidin conjugated with the complementary ss-DNA oligo) was applied at a flow rate of 2 μl/min for 300 s. Subsequently, 1 μg/ml to 100 μg/mL of biotinylated muteins or negative control were applied for 300 s at a flow rate of 5 μl/min. The reference channel was loaded with Biotin CAPture Reagent only.
Applying a flow rate of 30 μl/min, a single cycle or multi cycle kinetics approach was used with a sample contact time of 120-180 s and a dissociation time of 900-2400 s. […] After ligand immobilization, for analysis using single cycle kinetics all 4-5 concentrations of Pvd were applied consecutively in ascending order before the dissociation was monitored. For analysis using multi cycle kinetics 4 dilutions of Pvd were applied, each followed a dissociation phase. All measurements were performed at 25° C. […] Data were evaluated with Biacore T200 Evaluation software (V 1.0). Double referencing was used. A 1:1 Binding model was used to fit the raw data.
as §1
In the SPR affinity assay, biotinylated muteins and negative control were captured on a sensor chip CAP using the Biotin CAPture Kit (GE Healthcare), wherein the Sensor Chip CAP is pre-immobilized with an ssDNA oligo. Undiluted Biotin CAPture Reagent (streptavidin conjugated with the complementary ss-DNA oligo) was applied at a flow rate of 2 μl/min for 300 s. Subsequently, 20 μg/ml to 100 μg/mL of biotinylated muteins or fusion molecule negative control were applied for 300 s at a flow rate of 5 μl/min. The reference channel was loaded with Biotin CAPture Reagent only. To determine the binding affinity, four dilutions of the respective Pvd were prepared in HBS-EP+ buffer (GE Healthcare) and applied to the chip surface. Applying a flow rate of 30 μl/min, a single cycle kinetics approach was used with a sample contact time of 180 s and a dissociation time of 1800-2400 s. […] After ligand immobilization, the four concentrations of Pvd were applied consecutively in ascending order before the dissociation was monitored. All measurements were performed at 25° C. […] Data were evaluated with Biacore T200 Evaluation software (V 1.0). Double referencing was preformed. A 1:1 binding model was used to fit the raw data.

[4] = target: T2, Fusion molecule SEQ ID NO: 134 (hNGAL muteins SEQ ID NOs: 36, 16, 53 and 62) (Homo sapiens, UniProt P80188, A60T/C107S/D97H, form not given/K145I/K154W/K93R/L123T/L56V/L90R/N85D/Q69G/R101D/R92I/S147R/S88D/T74A/W99Y/Y126Q/Y152I/Y72N); assay: Surface plasmon resonance (Biacore T200); assay type: binding
T2 construct: made in house; host or cells: HEK293

P. aeruginosa PA01 = assay: Chronic lung infection model in rats; assay type: in vivo, Sprague Dawley rats; conditions: 20 mg/kg/dose, IV BD, treatment from day 3 post infection
Description: P. aeruginosa, PA01, was recovered from long-term storage at −80° C. by sub-culturing onto fresh blood agar plates and incubating at 37° C. overnight. The inoculum was prepared by picking 5-10 distinct colonies from the culture plates followed by suspension in 10 mL of Muller-Hinton broth. The culture was incubated for 18 hours on an orbital shaker at 300 rpm and 37° C. The culture was washed twice in PBS, then the pellet was resuspended in PBS and adjusted to an optical density of 0.669 at 600 nm (approximately 1.2×10^9 CFU/mL). This was further diluted to give an inoculum concentration of 6×10^7 CFU/mL. 1 mL of this inoculum was added to 30 mL of bacteriological agar, used to prepare the agarose beads (Cash H. A. et al., 1979). The final concentration of PA01 in the agarose beads was 2×10^6 CFU/mL (1×10^5 CFU per 50 μL inoculum).
Sprague Dawley rats used in this study were supplied by Charles River Laboratories UK. Rats were 200-225 g at the time of delivery and were specific pathogen free. Following arrival, rats were allowed at least 7 days acclimatization before the study was started. Rats were 250-300 g at the start of the study. Rats were group housed in sterile individually ventilated cages exposing the animals at all times to HEPA filtered sterile air. Rats had free access to food and water (sterile) and had sterile aspen chip bedding (changed every 3-4 days or as appropriate). […]

T2 sequence (P80188 with tags, fused parts or gaps with the stated changes, form open): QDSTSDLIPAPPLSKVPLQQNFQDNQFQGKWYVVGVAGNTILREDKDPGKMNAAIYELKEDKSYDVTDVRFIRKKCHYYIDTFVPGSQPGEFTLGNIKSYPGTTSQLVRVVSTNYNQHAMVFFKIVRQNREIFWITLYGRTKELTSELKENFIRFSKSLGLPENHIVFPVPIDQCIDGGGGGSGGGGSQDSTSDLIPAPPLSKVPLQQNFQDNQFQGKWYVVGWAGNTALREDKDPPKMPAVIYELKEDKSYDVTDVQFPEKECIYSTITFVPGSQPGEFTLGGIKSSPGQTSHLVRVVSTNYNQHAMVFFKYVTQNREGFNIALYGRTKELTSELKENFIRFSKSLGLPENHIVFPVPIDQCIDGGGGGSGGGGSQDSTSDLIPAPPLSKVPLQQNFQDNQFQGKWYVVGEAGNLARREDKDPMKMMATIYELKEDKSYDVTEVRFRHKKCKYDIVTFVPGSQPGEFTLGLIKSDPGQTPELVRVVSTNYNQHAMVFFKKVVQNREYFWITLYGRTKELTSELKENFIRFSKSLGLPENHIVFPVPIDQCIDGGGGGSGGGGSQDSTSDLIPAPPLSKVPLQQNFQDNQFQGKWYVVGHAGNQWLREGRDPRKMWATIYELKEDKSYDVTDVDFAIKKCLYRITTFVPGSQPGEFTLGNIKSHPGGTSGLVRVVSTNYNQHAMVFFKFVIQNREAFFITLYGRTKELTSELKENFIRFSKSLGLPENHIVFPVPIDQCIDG
hNGAL (human lipocalin 2), wild type, SEQ ID NO: 1, sequence (P80188 21-198): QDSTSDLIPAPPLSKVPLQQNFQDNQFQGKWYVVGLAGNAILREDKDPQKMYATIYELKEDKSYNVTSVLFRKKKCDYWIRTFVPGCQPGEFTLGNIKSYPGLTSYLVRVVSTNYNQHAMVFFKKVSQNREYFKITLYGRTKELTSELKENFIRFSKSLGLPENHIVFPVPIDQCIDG
lipocalin negative control SEQ ID NO: 64, sequence (P80188 21-198 Q48H/C107S): as the sequence (P80188 21-198) above, with Q28H, C87S counted along it
T1 sequence (P80188 21-198 with the stated changes): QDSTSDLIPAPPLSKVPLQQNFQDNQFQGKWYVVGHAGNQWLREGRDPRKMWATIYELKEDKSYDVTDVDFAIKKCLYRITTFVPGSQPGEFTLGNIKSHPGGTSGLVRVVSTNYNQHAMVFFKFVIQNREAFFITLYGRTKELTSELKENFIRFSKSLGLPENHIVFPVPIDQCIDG

O=C(N[C@H]1COC(=O)[C@@H](NC(=O)c2cccc(O)c2O)COC(=O)[C@@H](NC(=O)c2cccc(O)c2O)COC1=O)c1cccc(O)c1O.[Fe+3] [Fe-Enterobactin, Fe-enterobactin]
binding [1]: showed binding
binding [2]: absence of binding
binding [3]: showed binding
KD ([4]; Biacore, 25° C., Table 13): no bdg
binding ([4]; SPR, high concentrations (≥1 μM)): absence of binding

NC[C@H]1O[C@H](O[C@H]2[C@H](O)[C@@H](O[C@H]3O[C@H](CO)[C@@H](O)[C@H](N)[C@H]3O)[C@H](N)C[C@@H]2N)[C@H](N)C[C@@H]1O [Tobramycin]
clearance of lung infection (P. aeruginosa PA01): cleared the infection starting from day 5 post-infection

From patent publication US10947284B2, “Fusion molecules” (Pieris Pharmaceuticals GMBH, priority 2015, dated 2021)
